Experiments:
Type in all cases: biochemical
[1] = molecular target: T1, human kappa opioid receptor (Homo sapiens, UniProt P41145); experiment: Apparent affinity (Ke): shift of U69,593 dose response curve in [35S]GTP-γ-S binding
T1 construct: expressed in transfected cells; host or cells: CHO cells (membrane homogenates)
Text: Determination of apparent affinity (Ke). The ability of a single concentration of test compound to shift the U69,593 (full kappa opioid receptor agonist) dose response curve to the right was used to determine the apparent affinity (Ke) of the test compounds. Assay conditions and analysis of the data were identical to that detailed for the determination of intrinsic activity except that membrane homogenates from CHO cells expressing the human kappa opioid receptor were used, and a single, identical concentration of test compound was included with each assayed concentration of kappa agonist. […]

[2] = molecular target: T2, human delta opioid receptor (Homo sapiens, UniProt P41143); experiment: [35S]GTP-γ-S binding stimulation, intrinsic activity at delta receptor; details: for intrinsic activity at the delta opioid receptor (in words): compared with DPDPE; for Emax: read-out: Agonist δ Emax (% DPDPE)
T2 construct: expressed in transfected cells; host or cells: CHO cells (membrane homogenates)
T2 sequence (P41143 whole entry): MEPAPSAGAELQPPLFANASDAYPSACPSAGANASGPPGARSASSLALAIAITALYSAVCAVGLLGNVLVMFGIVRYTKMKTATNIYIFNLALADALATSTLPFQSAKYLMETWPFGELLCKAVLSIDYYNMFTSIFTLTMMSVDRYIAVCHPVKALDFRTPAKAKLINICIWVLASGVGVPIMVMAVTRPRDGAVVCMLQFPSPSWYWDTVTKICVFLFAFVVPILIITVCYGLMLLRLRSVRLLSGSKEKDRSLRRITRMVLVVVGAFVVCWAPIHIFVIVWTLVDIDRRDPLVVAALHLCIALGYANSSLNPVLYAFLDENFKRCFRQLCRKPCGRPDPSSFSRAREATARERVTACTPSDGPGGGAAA
Protocol: (§1) Determination of intrinsic activity. Test compounds 2.8 and 2.11 were assayed for their ability to stimulate [35S]GTP-γ-S binding in CHO cell membrane homogenates expressing either the human mu or human delta opioid receptor. The compounds were assayed in triplicate at eight different concentrations. […] The membranes were incubated with one of eight concentrations of positive control or test compound, 0.1 nM [35S]GTP-γ-S and 10 μM GDP in a 50 mM HEPES buffer (pH 7.4) at room temperature for one hour, after which bound radioligand was separated from free via rapid vacuum filtration over GF-B filters using a Brandel Scientific (Gaithersburg, MD) 96-well harvester. Bound radioactivity was determined using a TopCount 12-detector instrument (Packard Instruments) using standard scintillation counting techniques. The data were normalized to samples containing vehicle (basal binding), and a three-parameter logistic curve fit to the data using Prism (version 3.0, GraphPad Software, Inc., San Diego, Calif.). The EC50 and upper asymptote (Emax) were calculated for each compound and the data reported as mean ±SEM.

human mu opioid receptor = molecular target: T3, human mu opioid receptor (Homo sapiens, UniProt P35372); experiment: [35S]GTP-γ-S binding stimulation, intrinsic activity at mu receptor; details: for intrinsic activity at the mu opioid receptor (in words): compared with DAMGO
T3 construct: expressed in transfected cells; host or cells: CHO cells (membrane homogenates)
T3 sequence (P35372 whole entry): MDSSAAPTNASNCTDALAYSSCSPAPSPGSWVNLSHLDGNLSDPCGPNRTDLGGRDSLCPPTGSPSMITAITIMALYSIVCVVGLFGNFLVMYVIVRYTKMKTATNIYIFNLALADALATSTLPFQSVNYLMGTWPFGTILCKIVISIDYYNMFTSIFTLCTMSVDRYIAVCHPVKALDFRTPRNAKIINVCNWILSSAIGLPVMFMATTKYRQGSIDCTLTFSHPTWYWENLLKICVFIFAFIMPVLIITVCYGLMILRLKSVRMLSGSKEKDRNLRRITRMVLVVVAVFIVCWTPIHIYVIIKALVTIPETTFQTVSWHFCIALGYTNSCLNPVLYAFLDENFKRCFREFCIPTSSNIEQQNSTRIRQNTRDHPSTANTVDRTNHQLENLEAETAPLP
Protocol: as §1

T1 sequence (P41145 whole entry): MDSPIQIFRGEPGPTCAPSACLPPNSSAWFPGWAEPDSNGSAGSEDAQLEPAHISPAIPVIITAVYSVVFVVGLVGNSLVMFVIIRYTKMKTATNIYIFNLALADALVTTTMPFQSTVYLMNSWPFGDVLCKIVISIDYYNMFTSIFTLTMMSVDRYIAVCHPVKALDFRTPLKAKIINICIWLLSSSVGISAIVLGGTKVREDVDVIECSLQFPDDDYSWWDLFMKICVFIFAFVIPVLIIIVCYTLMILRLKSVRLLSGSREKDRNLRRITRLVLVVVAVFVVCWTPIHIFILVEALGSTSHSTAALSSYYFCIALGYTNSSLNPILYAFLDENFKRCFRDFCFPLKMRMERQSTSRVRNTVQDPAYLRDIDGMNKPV

| Structure (SMILES) | activity at the kappa opioid receptor (in words) [1] | intrinsic activity at the delta opioid receptor (in words) [2] | Emax [2] [%] | intrinsic activity at the mu opioid receptor (in words) (human mu opioid receptor) | Emax (human mu opioid receptor; relative to Emax of DAMGO, mean ±SEM, read-out: Agonist μ Emax (% DAMGO)) [%] | maximum stimulation of [35S]GTP-γ-S binding compared with DAMGO (t-test) (human mu opioid receptor; p>0.05) |
| --- | --- | --- | --- | --- | --- | --- |
| C[C@@H]1CN(CCCc2ccccc2)[C@H]2C[C@H](N)C[C@]1(c1cccc(O)c1)C2 [Compound 2.8, (−)-3-[(1 R,4S,5S,7R)-7-Amino-4-methyl-2-(3-phenylpropyl)-2-aza-bicyclo[3.3.1]non-5-yl]phenol] | good inhibitor | potent full agonist | 101 ± 14 | partial agonist | 74 ± 12 | – |
| CNC1CC2CC(c3cccc(O)c3)(C1)C(C)CN2CCCc1ccccc1 (centres unmarked) [Compound 2.11, 5-(3-Hydroxyphenyl)-4-methyl-7-methylamino-2-(3-phenylprop-1-yl)-2-azabicyclo[3.3.1]nononane] | good inhibitor | partial agonist | 79.7 ± 7.7 | full agonist | – | not statistically different |
| C[C@@H](NC(=O)[C@@H](N)Cc1ccc(O)cc1)C(=O)NCC(=O)N(C)[C@@H](Cc1ccccc1)C(=O)NCCO [DAMGO, (D-Ala^2,MePhe^4,Gly-ol^5)enkephalin, reference compound] | – | – | – | full agonist | – | – |

Reference: patent US7399762B2, “Opioid receptor agonist compounds and their use in treatment of pain” (Research Triangle Institute, priority 2005, dated 2008)
